Laboratory results reported in publication PMC6424980, “Distinct G protein-coupled receptor phosphorylation motifs modulate arrestin affinity and activation and global conformation” (Nature Communications, 2019).
One block for each molecule: values may come before it. Non-standard residues stand in square brackets, D forms with d. No end group written: not given here. pS = N[C@@H](COP(=O)(O)O)C(=O)O

How the values were obtained:
[1] = biological target: T1, arrestin-1 (monomerizing mutant F85A, F197A) (Bos taurus, UniProt P08168, F197A/F85A); test: Fluorescence anisotropy binding of fluorescein-labelled peptides to arrestin-1; set-up: species or system bovine
T1 construct: made in house; host or cells: E. coli NiCo (DE3) cells (New England Biolabs), pET-15b vector
Text: Synthesized cDNAs of bovine arrestin-1, human arrestin-2 and human arrestin-3 were ordered from Genewiz, amplified by PCR and cloned (Supplementary Information Table 5) into the pET-15b vector (Novagen), using the Gibson Assembly protocol. The constructs contained an N-terminal hexa histidine tag linked by a linker that contained a Tobacco Etch Virus cleavage site (TEV; […]). PCR was used to introduce the monomerizing arrestin-1 mutations (F85A, F197A)[58]. Note that this mutant was employed for fluorescence anisotropy, trypsin digestion, and NMR experiments. Wild-type arrestin-2 and -3 were used for fluorescence anisotropy and trypsin digestion experiments. […] The arrestin-1 in this construct had the wild-type sequence. Note that this construct differs slightly from that previously published[59],[60] and was optimized for purification. We verified the functionality of this fusion construct using the standard centrifugal pull-down assay using phosphorylated rhodopsin in native ROS membranes.
0.1–0.2 mg of lyophilized peptide was dissolved in 50 µl of 50 mM phosphate-buffered saline (PBS) buffer at pH 7.0, and then two molar equivalents of fluorescein-5-maleimide dye stock dissolved in dimethylsulfoxid was added. The reaction was carried out at RT in the dark. After 1 h the reaction was topped up with 1 ml of ice-cold 100% acetone and stored until the next day at −20 °C. The precipitated peptide was centrifuged (13,000 × g) for 10 min. The labeled and precipitated peptide was sedimented, and the supernatant was removed. The peptide was resuspended again in ice-cold acetone, stored for 1 h at −20 °C and centrifuged (13,000 × g) for 10 min. […] The precipitated peptide was dried at RT in the dark. It was dissolved in 50 µl of 20 mM Bis-Tris propane pH 7.0 and 150 mM NaCl and its concentration was determined by absorbance. A molar extinction coefficient of 70,000/M/cm at pH 7.0 was assumed for calculating the concentration of the labeled peptide stock.
An 11-step serial dilution series of arrestin in 20 mM Bis-Tris propane pH 7.0, 150 mM NaCl, 8 mM 2‑mercaptoethanol, 2% (w/w) BSA, 0.02% (v/v) Tween-20 was prepared and transferred to a black high-bottom 384-well plate (Greiner). As control for free peptide, a position with only buffer was included. The peptide was added at a final concentration of 20 nM to each well. The plate was closed by a clear cover and vortexed for 15 s. Afterwards it was centrifuged (800 × g) for 2 min and stored at RT for 20 min. The reading was performed by default settings of PHERAstar plate-reader (BMG Labtech) and excitation‑/emission-wavelengths of 485 nm (12 nm bandpass)/520 nm (30 nm bandpass) were used. The analysis was performed using Origin2016 (Microcal Inc) software by fitting the data to a one-to-one binding model:2 r=R0+△R*P/Kd+P, where r stands for anisotropy, R0 stands for anisotropy of the ligand, ΔR stands for anisotropy of the complex minus anisotropy of the ligand, P stands for the concentration of protein, and Kd stands for the dissociation constant of the ligand.

[2] = system: arrestin-1 mutants I72B and F197NBD with nonphosphorylated light-activated rhodopsin in ROS membranes; test: Ternary complex formation (site-directed fluorescence and centrifugal pull-down); format: biochemical, bovine; settings: 10 µM rhodopsin in ROS, 1 µM arrestin-1 I72B or F197NBD, 100 µM peptide, pH 7
Text: Recombinant bovine arrestin-1 cloned into the pET15b vector was expressed and purified as described. The basic construct was a modified wild-type sequence that contained no native cysteines (C63A, C128S and C143A) nor tryptophans (W194F). Single cysteine residues were introduced by PCR at sites 72 or 197 as previously described. The I72C mutant was labeled with monobromobimane (Thermo Fisher) and is referred to as I72B. The F197C mutant was labeled with N,N′-Dimethyl-N-(Iodoacetyl)-N′-(7-Nitrobenz-2-Oxa-1,3-Diazol-4-yl)Ethylenediamine (IANBD amide, Thermo Fisher) and is referred to as F197NBD. Labeling was carried out as previously described[43],[61]. Both labeled mutants were assessed to be functionally similar to wild-type arrestin-1 using the Extra Meta II assay, which determines the ability of arrestin-1 to bind and stabilize the active Meta II form of rhodopsin[64].
Under dim-red light, samples were prepared that contained nonphosphorylated rhodopsin (10 µM) in ROS membranes, 1 µM arrestin-1 I72B or F197NBD, ±100 µM peptide in 50 mM HEPES, 130 mM NaCl, pH 7 (150 or 200 µl sample volume). One hundred microliters of the sample was used for fluorescence measurements, and the remainder was used for the centrifugal pull-down assay (50 µl per assay). Steady-state fluorescence measurements were performed using a SPEX Fluorolog (1680) instrument in front-face mode. Bimane fluorescence was recorded using an excitation wavelength of 400 nm and emission 424–600 nm, and NBD fluorescence was recorded using an excitation wavelength of 500 nm and emission 524–660 (2 nm step size, 0.5 s integration per point). Excitation slits were narrowed to 0.1−0.2 nm to minimize light-activation of rhodopsin, and emission slits were set at 4 nm. Pull-down analysis was performed by centrifuging samples at 16,000 × g for 10 min at 20 °C. Selected samples were light activated (>495 nm) for 15 s prior to centrifugation (appr. 60 s delay time). Following centrifugation, the supernatants were removed, and the pellets were solubilized in loading buffer containing 2% SDS and subjected to SDS PAGE. Bands were visualized using Coomassie Brilliant Blue.

[3] = biological target: T2, bovine arrestin-1 with the monomerizing mutations F85A, F197A (bovine, UniProt P08168 2-404, F85A | F197A); test: fluorescence polarisation; fluorescence anisotropy; 20 nM fluorescently labelled peptide, 11-step serial dilution of arrestin; 20 mM Bis-Tris propane pH 7.0, 150 mM NaCl, 8 mM 2-mercaptoethanol, 2% BSA, 0.02% Tween-20; RT; one-to-one binding model; settings: both partners purified
T2 construct: arrestin-1, bovine, synthesized cDNA in pET-15b; monomerizing mutations F85A, F197A; Used for fluorescence anisotropy, trypsin digestion and NMR (2H,15N,13C-labelled for NMR); residues of the linker may remain after cleavage (surmised); source: E. coli NiCo (DE3), purified (Ni-NTA, TEV, SQ column); not shown: His6, N-terminal, cleaved
T2 sequence (P08168 2-404 F85A/F197A): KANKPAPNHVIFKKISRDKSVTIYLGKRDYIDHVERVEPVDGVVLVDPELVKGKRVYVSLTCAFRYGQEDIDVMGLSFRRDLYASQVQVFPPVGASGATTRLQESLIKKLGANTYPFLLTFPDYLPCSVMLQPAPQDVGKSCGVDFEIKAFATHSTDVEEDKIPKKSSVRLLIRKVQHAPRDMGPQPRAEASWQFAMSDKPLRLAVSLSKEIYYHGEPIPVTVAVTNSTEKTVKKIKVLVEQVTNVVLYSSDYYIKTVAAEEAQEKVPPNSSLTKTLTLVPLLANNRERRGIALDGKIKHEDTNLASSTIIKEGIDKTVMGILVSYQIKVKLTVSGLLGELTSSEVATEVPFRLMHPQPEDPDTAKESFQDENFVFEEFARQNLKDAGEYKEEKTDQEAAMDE

T1 sequence (P08168 whole entry F85A/F197A): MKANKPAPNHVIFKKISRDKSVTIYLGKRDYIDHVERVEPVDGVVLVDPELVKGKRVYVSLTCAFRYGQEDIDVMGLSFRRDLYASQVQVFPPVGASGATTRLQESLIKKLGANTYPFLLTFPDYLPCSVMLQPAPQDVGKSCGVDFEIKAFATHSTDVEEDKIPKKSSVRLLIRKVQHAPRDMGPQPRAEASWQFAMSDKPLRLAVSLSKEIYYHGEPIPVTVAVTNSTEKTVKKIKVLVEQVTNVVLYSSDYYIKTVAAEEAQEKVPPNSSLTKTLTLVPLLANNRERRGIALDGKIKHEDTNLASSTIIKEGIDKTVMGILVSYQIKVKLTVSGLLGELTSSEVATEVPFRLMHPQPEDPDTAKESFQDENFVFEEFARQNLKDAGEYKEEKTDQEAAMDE

Molecule: CDDEASTTVSKTETSQVAPA [3Pe, tri-phosphorylated rhodopsin C-terminus peptide lacking one or both key sites]
binding to arrestin-1 (in words) [1]: significant loss of affinity
ternary complex formation (arrestin-1, nonphosphorylated rhodopsin, peptide) [2]: very little arrestin binding

Molecule: CDDEASTTVSKTETSQVAPA [3Pg, tri-phosphorylated rhodopsin C-terminus peptide lacking one key site, containing pT335 and pS338]
binding to arrestin-1 (in words) [1]: significant loss of affinity
ternary complex formation (arrestin-1, nonphosphorylated rhodopsin, peptide) [2]: moderate ternary complex formation

Molecule: CDDEASTTVSKTETSQVAPA [3Ph, tri-phosphorylated rhodopsin C-terminus peptide lacking one or both key sites]
binding to arrestin-1 (in words) [1]: significant loss of affinity
ternary complex formation (arrestin-1, nonphosphorylated rhodopsin, peptide) [2]: very little arrestin binding

Molecule: CDDEASTTVSKTETSQVAPA [3Pi, tri-phosphorylated rhodopsin C-terminus peptide lacking one key site, containing pT335 and pS338]
binding to arrestin-1 (in words) [1]: significant loss of affinity
ternary complex formation (arrestin-1, nonphosphorylated rhodopsin, peptide) [2]: moderate ternary complex formation

Molecule: CDDEASTTVSKTETSQVAPA [3Pj, tri-phosphorylated rhodopsin C-terminus peptide lacking one or both key sites]
binding to arrestin-1 (in words) [1]: significant loss of affinity
ternary complex formation (arrestin-1, nonphosphorylated rhodopsin, peptide) [2]: very little arrestin binding

Molecule: CDDEASTTVSKTETSQVAPA [3Pk, tri-phosphorylated rhodopsin C-terminus peptide lacking one or both key sites]
binding to arrestin-1 (in words) [1]: significant loss of affinity
ternary complex formation (arrestin-1, nonphosphorylated rhodopsin, peptide) [2]: very little arrestin binding

Kd [3]: < 250 µM
B1: phosphopeptide 4P of the bovine rhodopsin C-terminus (peptide)
chain: C(fluorescein‑5‑maleimide)DDEASTTVSKTET[pS]QVAPA
modifications: not fully specified (residue 12); also: two further phospho-Ser/Thr sites not placed

Kd [3]: < 250 µM
Molecule: C(fluorescein‑5‑maleimide)DDEASTTVSKTET[pS]QVAPA (not fully specified (residue 12); also: third phospho-Ser/Thr site not placed) [tri-phosphorylated peptide 3Pd of the bovine rhodopsin C-terminus]

Kd [3]: < 250 µM
Molecule: C(fluorescein‑5‑maleimide)DDEASTTVSKTET[pS]QVAPA (not fully specified (residue 12); also: third phospho-Ser/Thr site not placed) [tri-phosphorylated peptide 3Pc of the bovine rhodopsin C-terminus]

Kd [3]: < 250 µM
B2: phosphopeptide 6P of the bovine rhodopsin C-terminus (peptide)
chain: C(fluorescein‑5‑maleimide)DDEASTTVSKTET[pS]QVAPA
modifications: not fully specified (residue 12); also: four further phospho-Ser/Thr sites not placed

Kd [3]: < 250 µM
Molecule: C(fluorescein‑5‑maleimide)DDEASTTVSKTET[pS]QVAPA (not fully specified (residue 12); also: third phospho-Ser/Thr site not placed) [tri-phosphorylated peptide 3Pb of the bovine rhodopsin C-terminus]

Kd [3]: < 250 µM
Molecule: C(fluorescein‑5‑maleimide)DDEASTTVSKTET[pS]QVAPA (not fully specified (residue 12); also: third phospho-Ser/Thr site not placed) [tri-phosphorylated peptide 3Pa of the bovine rhodopsin C-terminus]
